For this test, the target named is full-length recombinant human FYN A (Homo sapiens (Human), UniProt P06241). Nature of the test: ADP-Glo Kinase Assay of FYN kinase inhibition. The class given is biochemical. Conditions: primary screen, initial compounds. Put shortly:
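GST-tagged full-length FYN A (baculovirus, Sf9) at 3 pg preincubated 30 min RT with compound (10-point 3-fold series from 10 μM) in Tris pH 7.5/MgCl2 buffer. 12-mer tyrosine peptide plus 12.5 pmol ATP added, 90 min RT; ADP measured by ADP-Glo luminescence, IC50 from dose-response.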

Chain of full-length recombinant human FYN A (P06241 whole entry): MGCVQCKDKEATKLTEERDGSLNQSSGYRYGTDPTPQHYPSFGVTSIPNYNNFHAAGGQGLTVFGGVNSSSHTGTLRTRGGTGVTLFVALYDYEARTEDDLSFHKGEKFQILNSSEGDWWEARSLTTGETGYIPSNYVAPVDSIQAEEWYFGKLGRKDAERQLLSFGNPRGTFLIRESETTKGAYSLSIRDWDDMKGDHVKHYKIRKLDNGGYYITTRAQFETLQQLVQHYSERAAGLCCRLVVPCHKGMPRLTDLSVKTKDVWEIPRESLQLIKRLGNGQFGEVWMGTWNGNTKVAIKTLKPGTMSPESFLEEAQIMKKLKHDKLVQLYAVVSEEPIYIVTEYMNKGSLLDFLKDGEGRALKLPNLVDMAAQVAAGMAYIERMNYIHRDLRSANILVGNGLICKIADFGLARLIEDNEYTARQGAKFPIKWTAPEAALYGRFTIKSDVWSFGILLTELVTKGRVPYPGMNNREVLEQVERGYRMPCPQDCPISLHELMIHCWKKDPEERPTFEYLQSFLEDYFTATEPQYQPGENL

On to `Nc1ccc(-c2cnc3ccc(Cc4ccccc4)nn23)cn1` [Compound 486, 5-(6-benzylimidazo [1,2-b]pyridazin-3-yl)pyridin-2-amine], for which the IC50 was 3.64 µM.

On to `CN(C)CCNC(=O)c1cccc(-c2cnc3ccc(-c4ccoc4)nn23)c1` [Compound 487, N-(2-dimethylamino-ethyl)-3-[6-(3-furyl)imidazo [1,2-b]pyridazin-3-yl]benzamide], for which the IC50 came out at 3.88 µM. To `CNC(=O)c1cccc(-c2ccc3ncc(-c4ccc(CO)cc4)n3n2)c1` [Compound 488, 3-[3-[4-(hydroxymethyl)phenyl]imidazo [1,2-b]pyridazin-6-yl]-N-methyl-benzamide] belongs 14.9 µM; to `COc1ccccc1-c1n[nH]c2nccc(-c3ccc(N4CCOCC4)cc3)c12` [Compound 489, 4-[4-[3-(2-methoxyphenyl)-1H-pyrazolo[3,4-b]pyridin-4-yl]phenyl] morpholine], 1.39 µM; to `COc1ccccc1-c1n[nH]c2nccc(-c3ccc(F)c(Cl)c3)c12` [Compound 490, 4-(3-chloro-4-fluoro-phenyl)-3-(2-methoxy-phenyl)-1H-pyrazolo[3,4-b]pyridine], 1.28 µM. To `COc1ccc(-c2ccnc3[nH]nc(-c4ccccc4OC)c23)cn1` [Compound 491, 3-(2-methoxyphenyl)-4-(6-methoxy-3-pyridyl)-1H-pyrazolo[3,4-b]pyridine] belongs 2.93 µM.

In the case of `COc1ncc(-c2ccnc3[nH]nc(-c4ccccc4OC)c23)cn1` [Compound 492, 3-(2-methoxyphenyl)-4-(2-methoxy-pyrimidin-5-yl)-1H-pyrazolo[3,4-b]pyridine], the IC50 was 6.43 µM. As to `CN(C)C(=O)c1ccc(-c2ccnc3[nH]nc(-c4cccc(F)c4)c23)cc1` [Compound 493, 4-[3-(3-fluorophenyl)-1H-pyrazolo[3,4-b]pyridin-4-yl]-N,N-dimethyl-benzamide], the IC50 came to 3.86 µM.

With `CN(C)C(=O)c1ccc(-c2ccnc3[nH]nc(-c4ccsc4)c23)cc1` [Compound 494, N,N-dimethyl-4-[3-(3-thienyl)-1H-pyrazolo[3,4-b]pyridin-4-yl]benzamide], the IC50 came out at 11.2 µM. On to `CC(=O)Nc1ccc(-c2ccnc3[nH]nc(C4CC4)c23)cc1` [Compound 495, N-[4-(3-cyclopropyl-1H-pyrazolo[3,4-b]pyridin-4-yl)phenyl] acetamide], for which the IC50 came out at 8.89 µM.

For `Nc1cccc(-c2ccnc3[nH]nc(-c4ccncc4)c23)c1` [Compound 496, 3-[3-(4-pyridyl)-1H-pyrazolo[3,4-b]pyridin-4-yl]aniline], the IC50 was 18 µM. For the compound `OCc1ccc(-c2ccnc3[nH]nc(-c4cccc(F)c4)c23)cc1` [Compound 497], the IC50 was 3.88 µM. For `COc1ccccc1-c1n[nH]c2nccc(-c3ccsc3)c12` [Compound 498, 3-(2-methoxyphenyl)-4-(3-thienyl)-1H-pyrazolo[3,4-b]pyridine], the IC50 came out at 2.67 µM.

In the case of `COc1cc(-c2n[nH]c3nccc(-c4ccc(NC(C)=O)cc4)c23)cc(OC)c1OC` [Compound 499, N-[4-[3-(3,4,5-trimethoxy-phenyl)-1H-pyrazolo[3,4-b]pyridin-4-yl]phenyl] acetamide], the IC50 was 2.02 µM. `COc1ccccc1-c1n[nH]c2nccc(/C=C/c3ccccc3)c12` [Compound 500, 3-(2-methoxyphenyl)-4-[(E)-styryl]-1H-pyrazolo[3,4-b]pyridine]: the IC50 turned out to be 1.13 µM.

As to `COc1ccccc1-c1n[nH]c2nccc(-c3cccc(F)c3)c12` [Compound 501, 4-(3-fluorophenyl)-3-[2-methoxy-phenyl)-1H-pyrazolo[3,4-b]pyridine], the IC50 is 1.35 µM. To `COc1ccccc1-c1n[nH]c2nccc(-c3ccc(C(N)=O)cc3)c12` [Compound 502, 4-[3-(2-methoxyphenyl)-1H-pyrazolo[3,4-b]pyridin-4-yl]benzamide] belongs 1.48 µM; to `OCc1ccc(-c2ccnc3[nH]nc(-c4ccccc4)c23)cc1` [Compound 503, [4-(3-phenyl-1H-pyrazolo[3,4-b]pyridin-4-yl)phenyl] methanol], 7.11 µM; to `c1ccc(-c2n[nH]c3nccc(-c4cn[nH]c4)c23)cc1` [Compound 504, 3-phenyl-4-(1H-pyrazol-4-yl)-1H-pyrazolo[3,4-b]pyridine], 0.852 µM. For `COc1cc(-c2n[nH]c3nccc(-c4ccc(C(C)C)cc4)c23)cc(OC)c1OC` [Compound 505, 4-(4-isopropylphenyl)-3-(3,4,5-trimethoxy-phenyl)-1H-pyrazolo[3,4-b]pyridine], the IC50 worked out at 20.9 µM. As for `Clc1cccc(-c2ccnc3[nH]nc(C4CC4)c23)c1` [Compound 506, 4-(3-chlorophenyl)-3-cyclopropyl-1H-pyrazolo[3,4-b]pyridine], the IC50 worked out at 30 µM. To `COc1ccccc1-c1n[nH]c2nccc(-c3cccc(C(=O)NCCN(C)C)c3)c12` [Compound 507, N-(2-dimethylamino-ethyl)-3-[3-(2-methoxyphenyl)-1H-pyrazolo[3,4-b]pyridin-4-yl]benzamide] belongs 4.85 µM; to `COc1ccccc1-c1n[nH]c2nccc(-c3cccc(CO)c3)c12` [Compound 508, [3-[3-(2-methoxyphenyl)-1H-pyrazolo[3,4-b]pyridin-4-yl]phenyl] methanol], 1.67 µM. Regarding `NC(=O)c1ccc(-c2ccnc3[nH]nc(-c4cccc(F)c4)c23)cc1` [Compound 509, 4-[3-(3-fluorophenyl)-1H-pyrazolo[3,4-b]pyridin-4-yl]benzamide], the IC50 was 2.05 µM.

As for `NC(=O)c1ccc(-c2ccnc3[nH]nc(-c4ccc(Cl)cc4)c23)cc1` [Compound 510, 4-[3-(4-chlorophenyl)-1H-pyrazolo[3,4-b]pyridin-4-yl]benzamide], the IC50 was 5.71 µM. Take `COc1cc(-c2n[nH]c3nccc(-c4cccc(O)c4)c23)cc(OC)c1OC` [Compound 511, 3-[3-(3,4,5-trimethoxy-phenyl)-1H-pyrazolo[3,4-b]pyridin-4-yl]phenol]: the IC50 was 5.03 µM. Consider `CC(=O)c1cccc(-c2ccnc3[nH]nc(C4CCNCC4)c23)c1` [Compound 512, 1-[3-[3-(4-piperidyl)-1H-pyrazolo[3,4-b]pyridin-4-yl]phenyl] ethanone], for which the IC50 is 19.7 µM. `CC(=O)Nc1ccc(-c2ccnc3[nH]nc(-c4ccsc4)c23)cc1` [Compound 513, N-[4-[3-(3-thienyl)-1H-pyrazolo[3,4-b]pyridin-4-yl]phenyl] acetamide]: the IC50 turned out to be 4.87 µM. To `COc1cc(-c2ccnc3[nH]nc(C4CCNCC4)c23)ccc1O` [Compound 514, 2-methoxy-4-[3-(4-piperidyl)-1H-pyrazolo[3,4-b]pyridin-4-yl]phenol] belongs 11.9 µM. To `COc1cc(-c2n[nH]c3nccc(-c4cccc(NS(C)(=O)=O)c4)c23)cc(OC)c1OC` [Compound 515, N-[3-[3-(3,4,5-trimethoxy-phenyl)-1H-pyrazolo[3,4-b]pyridin-4-yl]phenyl] methane-sulfonamide] belongs 12.8 µM; to `COc1ccccc1-c1n[nH]c2nccc(-c3ccoc3)c12` [Compound 516, 4-(3-furyl)-3-(2-methoxyphenyl)-1H-pyrazolo[3,4-b]pyridine], 4.9 µM.

On to `Oc1cccc(-c2ccnc3[nH]nc(-c4ccc5c(c4)OCO5)c23)c1` [Compound 517, 3-[3-(1,3-benzodioxol-5-yl)-1H-pyrazolo[3,4-b]pyridin-4-yl]phenol], for which the IC50 was 6.25 µM.

These data come from US10688093B2, “Methods, compositions, and uses of novel Fyn kinase inhibitors” (priority 2015, dated 2020).
